Series [1] is described as follows: Storage stability by HPLC purity / 1H NMR. It counts as physicochemical. As to conditions: solution in d-chloroform, room temperature, fresh, 1 day, 4 days. The procedure:
The procedures employed for the synthesis of targeted compounds 1 and 2 are depicted in Scheme 1. The required DMCU was prepared according to a three-step sequence reported in the literature. Initially, the commercially available Boc-L-valine 3 was reacted with 2-aminoethanol 4 in the presence of HOTT and Et3N to provide the amide product 5 in 82% yield. Under treatment with 4-nitrophenyl chloroformate and DIPEA, 5 was converted into 6 in 87% yield. One equivalent or excess amount of 6 was coupled with the deprotonated DMCU, formed in situ by the treatment of DMCU with Cs2CO3, to afford compound 7 and 8, respectively. Compound 7 and 8 thus obtained were subjected to Boc deprotection under the standard conditions to give 1 and 2, respectively. The preliminary stability test was performed with NMR by applying 2 as a typical example. […] Based on our previous experience in the synthesis of DMCU-HMP, the instability could be ascribed to the cross-hydrolysis of carbonate group by the terminal amino group of side chain. Salt formation reactions of the N-terminal L-valine were then carried out to cap the nucleophilic amino group. […] 2-TFA is also stable in DMSO solution (0.1 M concentration). After 6-day storage at room temperate, the purity of 2-TFA remained intact. Accordingly, a similar salt formation procedure was employed to produce the stable 1-TFA. Compound 1-TFA along with 2-TFA were then applied for the following evaluations.
Figure 2 The stability assessments of 2 and 2-TFA. (A) A clear solution of 2 in d-chloroform was subjected to a purity assessment by ^1H NMR spectroscopy at various storage times (fresh prepared (≤1 h); 1 day; 4 days). (B) The HPLC purity of fresh prepared 2-TFA was 95.74%. The fresh prepared 2-TFA in a solid state was stored at room temperature for another 6 days and then dissolved in water for HPLC analysis. The HPLC purity was decided as 95.55%. The fresh prepared 2-TFA was dissolved in DMSO and the resulting solution was stored at room temperature for another 6 days. HPLC purity of 2-TFA in the DMSO solution was 94.66%. […]

In series [2] the test system is HCT-116 colon cancer cell. The following applies: cited from earlier work.
A further series concerns MDA-MB-231 breast cancer. As to conditions: cited from earlier work.

SMILES strings stand for the structures.

The values that follow come from publication PMC8624457, “Synthesis and Characterization of the Ethylene-Carbonate-Linked L-Valine Derivatives of 4,4-Dimethylcurcumin with Potential Anticancer Activities” (Molecules, 2021).

On to `COc1cc(/C=C/C(=O)C(C)(C)C(=O)/C=C/c2ccc(OC(=O)OCCNC(=O)[C@@H](N)C(C)C)c(OC)c2)ccc1OC(=O)OCCNC(=O)[C@@H](N)C(C)C` [Compound 2], for which the “stability by 1H NMR (in words)” value in series [1] is given as “gradually degraded into unidentified products”.
As for `COc1cc(/C=C/C(=O)C(C)(C)C(=O)/C=C/c2ccc(OC(=O)C(C)(CO)CO)c(OC)c2)ccc1OC(=O)C(C)(CO)CO` [DMCU-HMP, 4,4-dimethyl substituted curcuminoid 2,2-bis(hydroxymethyl)propionate], the IC50 in series [2] is 3100 nM; in the series with MDA-MB-231 breast cancer, 2200 nM.
